The values below come from patent publication US10166302B2, “Labeling composition for cancer lesion” (NATIONAL CANCER CENTER, priority 2012, dated 2019).

The structures appear in SMILES notation.

Data set [1] in a line: Signal intensity of near-infrared fluorescence of ICG-MAA complexes at various ICG and MAA mixing ratios. The format is physicochemical. The following applies: for Signal intensity of near-infrared fluorescence: MAA 0 mg/ml.
For data set [2] the following is noted: 18 breast cancer patients (T. Kitai, et al., Breast Cancer, 12:211-215, 2005); cited from earlier work.

Regarding `CC1(C)C(/C=C/C=C/C=C/C=C2\N(CCCCS(=O)(=O)O)c3ccc4ccccc4c3C2(C)C)=[N+](CCCCS(=O)(=O)[O-])c2ccc3ccccc3c21` [ICG, indocyanine green], the “Signal intensity of near-infrared fluorescence” value in data set [1] (ICG 9.0 μM) stood at 289; in data set [1] (ICG 12.9 μM), 363; in data set [1] (ICG 25.8 μM), 466; in data set [1] (ICG 38.7 μM), 425; in data set [1] (ICG 51.6 μM), 399; in data set [1] (ICG 64.5 μM) it was 374. For the same compound, the “Signal intensity of near-infrared fluorescence” value in data set [1] (ICG 77.4 μM) is on record as 332; in data set [1] (ICG 103 μM) it was 289; in data set [1] (ICG 258 μM), 139; in data set [1] (ICG 516 μM), 71; in data set [1] (ICG 774 μM), 39; in data set [1] (ICG 1032 μM), 30. Besides, in data set [1] (MAA was not treated), the “ICG concentration showing the highest value of signal intensity of near-infrared fluorescence” value stood at 25.8 µM. The Clinical safety result in data set [2] is “safely used”.
